Measured values from patent US5736556A, “Tropane-2-aldoxime derivatives as nevro transmitter reuptake inhibitors” (NeuroSearch A/S, priority 1994, dated 1998).
Structures can show the parent of a compound that is named as a salt.

Legend:
Assay type in all cases: biochemical, rat (male Wistar)
[1] = target: T1, dopamine transporter (^3 H-dopamine uptake) (Rattus norvegicus, UniProt P23977); test: In vitro inhibition of ^3 H-dopamine (^3 H-DA) uptake in striatal synaptosomes; settings: ^3 H-DA 1 nM, 25 min at 37° C.
T1 construct: Corpi striati from male Wistar rats (150-200 g) are homogenized; from tissue; host or cells: P2 synaptosomes of corpus striatum, male Wistar rats
T1 sequence (P23977 whole entry): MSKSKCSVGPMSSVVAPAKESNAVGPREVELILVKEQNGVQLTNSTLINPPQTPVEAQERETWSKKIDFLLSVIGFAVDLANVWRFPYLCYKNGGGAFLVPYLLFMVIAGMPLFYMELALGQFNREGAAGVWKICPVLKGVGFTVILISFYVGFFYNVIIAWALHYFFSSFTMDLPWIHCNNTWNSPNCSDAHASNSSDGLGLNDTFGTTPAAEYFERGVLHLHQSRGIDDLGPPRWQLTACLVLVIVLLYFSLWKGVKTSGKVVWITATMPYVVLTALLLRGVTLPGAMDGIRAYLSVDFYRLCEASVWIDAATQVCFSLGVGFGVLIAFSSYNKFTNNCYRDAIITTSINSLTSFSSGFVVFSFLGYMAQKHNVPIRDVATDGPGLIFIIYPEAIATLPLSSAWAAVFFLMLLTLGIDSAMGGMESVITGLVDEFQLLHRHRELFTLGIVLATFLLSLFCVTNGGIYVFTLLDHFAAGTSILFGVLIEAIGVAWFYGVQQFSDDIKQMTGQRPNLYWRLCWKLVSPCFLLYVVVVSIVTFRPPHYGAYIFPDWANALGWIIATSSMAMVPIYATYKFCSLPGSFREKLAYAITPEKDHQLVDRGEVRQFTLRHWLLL
Text: (§1) The compounds of the invention have also been tested for their ability to inhibit reuptake of dopamine(DA) noradrenalin(NA) and serotonin(5-HT) in synaptosomes.
(§2) Specific neurotransmitter transporters/uptake sites on nerve terminals presumably function to terminate neuronal signaling by removing the neurotransmitters dopamine, noradrenaline and serotonin, respectively, from the synaptic cleft. The activity of the transporter integral proteins can be measured in vitro by synaptosomal uptake of ^3 H-dopamine, ^3 H-noradrenaline and ^3 H-serotonine, respectively.
In vitro inhibition of ^3 H-dopamine (^3 H-DA) uptake in striatal synaptosomes
(§3) Tissue preparations: Preparations are performed at 0°-4° C. unless otherwise indicated. Corpi striati from male Wistar rats (150-200 g) are homogenized for 5-10 sec in 100 volumes of ice-cold 0.32M sucrose containing 1 mM pargyline using an Ultra-Turrax homogenizer. Monoamine oxidase activity will be inhibited in the presence of pargyline. The homogenate is centrifuged at 1000×g for 10 min. The resulting supermatant is then centrifuged at 27,000×g for 50 min and the supernatant is discarded. The pellet (P2) is resuspended in oxygenated (equilibrated with an atmosphere of 96% O2 : 4% CO2 for at least 30 min) Krebs-Ringer incubation buffer (8000 ml per g of original tissue) at pH 7.2 containing 122 mM NaCl, 0.16 mM EDTA, 4.8 mM KCl, 12.7 mM Na2 HPO4, 3.0 mM NaH2 PO4, 1.2 mM MgSO4, 1 mM CaCl2, 10 mM glucose and 1 mM ascorbic acid.
(§4) Assay: Aliquots of 4.0 ml tissue suspension are added to 100 μl of test solution and 100 μl of ^3 H-DA (1 nM, final concentration), mixed and incubated for 25 min at 37° C. Non-specific uptake is determined using benztropine (10 μM, final concentration). After incubation the samples are poured directly onto Whatman GF/C glass fibre filters under suction. […] The amount of radioactivity on the filters is determined by conventional liquid scintillation counting. Specific uptake is calculated as the difference between total uptake and non-specific uptake. […]

[2] = target: T2, ^3 H-5-HT (serotonin) uptake (serotonin transporter) (Rattus norvegicus, UniProt P31652); test: In vitro inhibition of ^3 H-5-hydroxytryptamine (^3 H-5-HT, serotonin) uptake in cortical synaptosomes; settings: ^3 H-5-HT 1 nM, 30 min at 37° C.
T2 construct: Cerebral cortices from male Wistar rats (150-200 g) are homogenized; from tissue; host or cells: P2 synaptosomes of cerebral cortex, male Wistar rats
T2 sequence (P31652 whole entry): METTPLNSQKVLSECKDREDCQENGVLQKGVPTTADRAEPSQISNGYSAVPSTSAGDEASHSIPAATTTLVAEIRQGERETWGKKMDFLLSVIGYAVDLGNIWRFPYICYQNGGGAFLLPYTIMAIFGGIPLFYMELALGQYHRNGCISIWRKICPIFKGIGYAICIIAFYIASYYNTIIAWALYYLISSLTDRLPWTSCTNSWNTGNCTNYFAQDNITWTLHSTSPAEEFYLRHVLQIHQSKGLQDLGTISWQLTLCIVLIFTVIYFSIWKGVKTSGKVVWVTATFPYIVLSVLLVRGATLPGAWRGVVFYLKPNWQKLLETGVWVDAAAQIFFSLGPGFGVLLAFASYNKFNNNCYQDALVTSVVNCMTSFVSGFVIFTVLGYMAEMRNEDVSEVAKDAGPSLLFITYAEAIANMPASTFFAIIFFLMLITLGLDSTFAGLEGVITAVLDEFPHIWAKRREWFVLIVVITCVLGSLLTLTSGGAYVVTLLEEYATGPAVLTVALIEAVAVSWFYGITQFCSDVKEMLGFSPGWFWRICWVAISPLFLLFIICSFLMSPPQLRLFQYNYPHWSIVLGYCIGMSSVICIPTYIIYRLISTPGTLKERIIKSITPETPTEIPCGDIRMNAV
Text: as §1, §2
In vitro inhibition of ^3 H-5-hydroxytryptamine ^3 H-5-HT, serotonin) uptake in cortical synaptosomes
Tissue preparation: Preparations are performed at 0°-4° C. unless otherwise indicated. Cerebral cortices from male Wistar rats (150-200 g) are homogenized for 5-10 sec in 100 volumes of ice-cold 0.32M sucrose containing 1 mM pargyline using an Ultra-Turrax homogenizer. […]
as §4, with “H-5-HT” for “H-DA”, “30” for “25”, “citalopram (1” for “benztropine (10”, “concentration).” for “concentration). After incubation the samples are poured directly onto Whatman GF/C glass fibre filters under suction.”

[3] = target: T3, ^3 H-noradrenaline uptake (noradrenaline transporter) (Rattus norvegicus, UniProt Q63380); test: In vitro inhibition of ^3 H-noradrenaline (^3 H-NA) uptake in hippocampal synaptosomes; settings: ^3 H-NA 1 nM, 90 min at 37° C.
T3 construct: Hippocampi from male Wistar rats (150-200 g) are homogenized; from tissue; host or cells: P2 synaptosomes of hippocampus, male Wistar rats
T3 sequence (Q63380 1-617): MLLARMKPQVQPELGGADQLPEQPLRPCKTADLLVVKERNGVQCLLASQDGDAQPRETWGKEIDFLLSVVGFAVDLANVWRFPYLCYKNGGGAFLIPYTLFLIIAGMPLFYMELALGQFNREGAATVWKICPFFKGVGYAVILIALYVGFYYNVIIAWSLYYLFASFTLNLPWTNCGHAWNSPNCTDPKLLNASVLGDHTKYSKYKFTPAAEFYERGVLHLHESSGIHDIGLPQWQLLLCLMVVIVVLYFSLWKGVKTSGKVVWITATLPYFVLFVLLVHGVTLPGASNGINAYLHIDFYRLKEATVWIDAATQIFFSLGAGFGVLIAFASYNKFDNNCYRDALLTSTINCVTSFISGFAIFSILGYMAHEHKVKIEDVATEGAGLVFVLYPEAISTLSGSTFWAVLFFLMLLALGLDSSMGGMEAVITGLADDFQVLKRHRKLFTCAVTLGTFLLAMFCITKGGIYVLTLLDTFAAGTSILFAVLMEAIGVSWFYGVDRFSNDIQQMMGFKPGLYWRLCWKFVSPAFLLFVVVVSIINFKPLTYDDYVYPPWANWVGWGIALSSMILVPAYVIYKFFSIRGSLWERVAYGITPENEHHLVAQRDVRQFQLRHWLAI
Text: as §1, §2
In vitro inhibition of ^3 H-noradrenaline (^3 H-NA) uptake in hippocampal synaptosomes
as §3, with “Tissue preparation:” for “Tissue preparations:”, “indicated. Hippocampi” for “indicated. Corpi striati”, “resulting supernatant” for “resulting supermatant”, “buffer (2000” for “buffer (8000”, “MgSO4, 0.97” for “MgSO4, 1”
as §4, with “H-NA” for “H-DA”, “90” for “25”, “desipramine (1” for “benztropine (10”

SMILES | IC50 [1] [nM] | IC50 [2] [nM] | IC50 [3] [nM]
CON=C[C@@H]1[C@@H](c2ccc(Cl)c(Cl)c2)C[C@@H]2CC[C@H]1N2C [(1R,2R,3S)-3-(3,4-dichlorophenyl)-tropane-2-O-methyl-aldoxime, H2 SO4] | 3 | 13 | 1.3
CON=C[C@@H]1[C@@H](c2ccc(Cl)c(Cl)c2)C[C@@H]2CC[C@H]1N2 [(1R,2R,3S)-N-Normethyl-3-(3,4-dichlorophenyl)tropane-2-O-methyl-aldoxime, hydrochloride] | 2 | 1.7 | 1.3
